From ChEMBL document CHEMBL3045284 (Crop Prot, 2009)

Tests used:
Type in all cases: functional
Pyricularia oryzae [1] = test: Antifungal activity against Magnaporthe oryzae infected six-leaf stage of rice plant assessed as disease recovery at MIC treated 24 hr before fungal infection measured after 24 hr
Pyricularia oryzae [2] = test: Antifungal activity against Magnaporthe oryzae infected six-leaf stage of rice plant assessed as disease recovery at 8 time MIC treated 24 hr before fungal infection measured after 24 hr
Pyricularia oryzae [3] = test: Antifungal activity against Magnaporthe oryzae infected six-leaf stage of rice plant assessed susceptible lesion number per leaf area at MIC treated 24 hr before fungal infection measured after 24 hr
Pyricularia oryzae [4] = test: Antifungal activity against Magnaporthe oryzae infected six-leaf stage of rice plant assessed as disease recovery at 4 time MIC treated 24 hr before fungal infection measured after 24 hr
Pyricularia oryzae [5] = test: Antifungal activity against Magnaporthe oryzae infected six-leaf stage of rice plant assessed as disease recovery at 2 time MIC treated 24 hr before fungal infection measured after 24 hr
Pyricularia oryzae [6] = test: Antifungal activity against Magnaporthe oryzae infected six-leaf stage of rice plant assessed susceptible lesion number per leaf area at 8 time MIC treated 24 hr before fungal infection measured after 24 hr
Pyricularia oryzae [7] = test: Antifungal activity against drug-sensitive Magnaporthe oryzae infected six-leaf stage of rice plant assessed susceptible lesion number per leaf area treated 24 hr before fungal infection measured after 24 hr
Pyricularia oryzae [8] = test: Antifungal activity against drug-sensitive Magnaporthe oryzae infected six-leaf stage of rice plant assessed as reduction of susceptible lesion number per leaf area at 2 time MIC treated 24 hr before fungal infection measured after 6 days relative to control; design: scale not given: the % may be the effect or the level left
Pyricularia oryzae [9] = test: Antifungal activity against Magnaporthe oryzae infected six-leaf stage of rice plant assessed susceptible lesion number per leaf area at 4 time MIC treated 24 hr before fungal infection measured after 24 hr
Pyricularia oryzae [10] = test: Antifungal activity against drug-sensitive Magnaporthe oryzae infected six-leaf stage of rice plant assessed as reduction of disease recovery at 2 time MIC treated 24 hr before fungal infection measured after 6 days relative to control; design: scale not given: the % may be the effect or the level left
Pyricularia oryzae [11] = test: Antifungal activity against Magnaporthe oryzae infected six-leaf stage of rice plant assessed susceptible lesion number per leaf area at 2 time MIC treated 24 hr before fungal infection measured after 24 hr
Pyricularia oryzae [12] = test: Antifungal activity against drug-sensitive Magnaporthe oryzae infected six-leaf stage of rice plant assessed as disease recovery treated 24 hr before fungal infection measured after 24 hr

Compound `CC(C)OP(=O)(OC(C)C)SCc1ccccc1` [IPROBENFOS] has an Activity (Pyricularia oryzae [1]) of 1.23%, an Activity (Pyricularia oryzae [2]) of 0.45% and an Activity (Pyricularia oryzae [3]) of 1.28 cm2. It also gave an Activity (Pyricularia oryzae [4]) of 0.87%, an Activity (Pyricularia oryzae [5]) of 1.17% and an Activity (Pyricularia oryzae [6]) of 0.39 cm2. It also gave an Activity (Pyricularia oryzae [7]) of 0.73 cm2, an Activity (Pyricularia oryzae [8]) of 28.1% and an Activity (Pyricularia oryzae [9]) of 0.93 cm2. For the same compound, the Activity (Pyricularia oryzae [10]) was 28.8%, the Activity (Pyricularia oryzae [11]) was 1.13 cm2 and the Activity (Pyricularia oryzae [12]) was 0.8%.

Compound `CCOP(=O)(Sc1ccccc1)Sc1ccccc1` [EDIFENPHOS] has an Activity (Pyricularia oryzae [1]) of 0.49%, an Activity (Pyricularia oryzae [2]) of 0.08% and an Activity (Pyricularia oryzae [3]) of 0.19 cm2. For the same compound, the Activity (Pyricularia oryzae [4]) was 0.18%, the Activity (Pyricularia oryzae [5]) was 0.35% and the Activity (Pyricularia oryzae [6]) was 0.03 cm2. It also gave an Activity (Pyricularia oryzae [7]) of 0.1 cm2, an Activity (Pyricularia oryzae [8]) of 63.5% and an Activity (Pyricularia oryzae [9]) of 0.07 cm2. For the same compound, the Activity (Pyricularia oryzae [10]) was 55.6%, the Activity (Pyricularia oryzae [11]) was 0.14 cm2 and the Activity (Pyricularia oryzae [12]) was 0.27%.
